Measurements: PubChem BioAssay AID1259407 (Chemical Carcinogenesis Research Information System (CCRIS), 2018)
Calls of active or inactive are those of the source. No rule for the calls is given here.

Test system: CCRIS mutagenicity, Ames/micronucleus/aberration tests
Assay: CCRIS mutagenicity studies

Measured: mutagenic call

COc1ccc(N)cc1
active: End Point: IN VITRO CHROMOSOMAL ABERRATIONS, Test System: CHINESE HAMSTER OVARY CELLS, Metabolic Activation: NONE active; positive | End Point: IN VITRO CHROMOSOMAL ABERRATIONS, Test System: CHINESE HAMSTER OVARY CELLS, Metabolic Activation: RAT, LIVER, S-9, AROCLOR 1254 active; positive | End Point: MORPHOLOGICAL TRANSFORMATION, Test System: SYRIAN HAMSTER EMBRYO CELLS (SHE), Metabolic Activation: NONE active; positive | Test System: AMES SALMONELLA TYPHIMURIUM, Strain/Indicator: TA100, Metabolic Activation: HAMSTER, LIVER, S-9, AROCLOR 1254 (30%), Method: PREINCUBATION active; positive
inactive: Test System: AMES SALMONELLA TYPHIMURIUM, Strain/Indicator: TA98, Metabolic Activation: HAMSTER, LIVER, S-9, AROCLOR 1254 (30%), Method: PREINCUBATION inactive; negative | Test System: AMES SALMONELLA TYPHIMURIUM, Strain/Indicator: TA98, Metabolic Activation: HAMSTER, LIVER, S-9, AROCLOR 1254, Method: STANDARD PLATE inactive; negative | Test System: AMES SALMONELLA TYPHIMURIUM, Strain/Indicator: TA98, Metabolic Activation: HAMSTER, LIVER, S-9, Method: STANDARD PLATE inactive; negative | Test System: AMES SALMONELLA TYPHIMURIUM, Strain/Indicator: TA98, Metabolic Activation: MOUSE, LIVER, S-9, AROCLOR 1254, Method: STANDARD PLATE inactive; negative | Test System: AMES SALMONELLA TYPHIMURIUM, Strain/Indicator: TA98, Metabolic Activation: MOUSE, LIVER, S-9, Method: STANDARD PLATE inactive; negative | Test System: AMES SALMONELLA TYPHIMURIUM, Strain/Indicator: TA98, Metabolic Activation: NONE, Method: PREINCUBATION inactive; negative | Test System: AMES SALMONELLA TYPHIMURIUM, Strain/Indicator: TA98, Metabolic Activation: NONE, Method: STANDARD PLATE inactive; negative | Test System: AMES SALMONELLA TYPHIMURIUM, Strain/Indicator: TA98, Metabolic Activation: RAT LIVER S-9, PHENOBARBITAL AND BETA-NAPHTHOFLAVONE, Method: PREINCUBATION inactive; negative | Test System: AMES SALMONELLA TYPHIMURIUM, Strain/Indicator: TA98, Metabolic Activation: RAT, LIVER, S-9, AROCLOR 1254 (30%), Method: PREINCUBATION inactive; negative | Test System: AMES SALMONELLA TYPHIMURIUM, Strain/Indicator: TA98, Metabolic Activation: RAT, LIVER, S-9, AROCLOR 1254, Method: STANDARD PLATE inactive; negative | Test System: AMES SALMONELLA TYPHIMURIUM, Strain/Indicator: TA98, Metabolic Activation: RAT, LIVER, S-9, Method: STANDARD PLATE inactive; negative | Test System: AMES SALMONELLA TYPHIMURIUM, Strain/Indicator: TA100, Metabolic Activation: NONE, Method: PREINCUBATION inactive; negative | Test System: AMES SALMONELLA TYPHIMURIUM, Strain/Indicator: TA100, Metabolic Activation: NONE, Method: STANDARD PLATE inactive; negative | Test System: AMES SALMONELLA TYPHIMURIUM, Strain/Indicator: TA100, Metabolic Activation: RAT LIVER S-9, PHENOBARBITAL AND BETA-NAPHTHOFLAVONE, Method: PREINCUBATION inactive; negative | Test System: AMES SALMONELLA TYPHIMURIUM, Strain/Indicator: TA100, Metabolic Activation: RAT, LIVER, S-9, AROCLOR 1254 (30%), Method: PREINCUBATION inactive; negative | Test System: AMES SALMONELLA TYPHIMURIUM, Strain/Indicator: TA102, Metabolic Activation: NONE, Method: PREINCUBATION inactive; negative | Test System: AMES SALMONELLA TYPHIMURIUM, Strain/Indicator: TA102, Metabolic Activation: NONE, Method: STANDARD PLATE inactive; negative | Test System: AMES SALMONELLA TYPHIMURIUM, Strain/Indicator: TA102, Metabolic Activation: RAT LIVER S-9, PHENOBARBITAL AND BETA-NAPHTHOFLAVONE, Method: PREINCUBATION inactive; negative | Test System: AMES SALMONELLA TYPHIMURIUM, Strain/Indicator: TA104, Metabolic Activation: NONE, Method: PREINCUBATION inactive; negative | Test System: AMES SALMONELLA TYPHIMURIUM, Strain/Indicator: TA104, Metabolic Activation: RAT LIVER S-9, PHENOBARBITAL AND BETA-NAPHTHOFLAVONE, Method: PREINCUBATION inactive; negative | Test System: AMES SALMONELLA TYPHIMURIUM, Strain/Indicator: TA1535, Metabolic Activation: HAMSTER, LIVER, S-9, AROCLOR 1254, Method: STANDARD PLATE inactive; negative | Test System: AMES SALMONELLA TYPHIMURIUM, Strain/Indicator: TA1535, Metabolic Activation: HAMSTER, LIVER, S-9, Method: STANDARD PLATE inactive; negative | Test System: AMES SALMONELLA TYPHIMURIUM, Strain/Indicator: TA1535, Metabolic Activation: MOUSE, LIVER, S-9, AROCLOR 1254, Method: STANDARD PLATE inactive; negative | Test System: AMES SALMONELLA TYPHIMURIUM, Strain/Indicator: TA1535, Metabolic Activation: MOUSE, LIVER, S-9, Method: STANDARD PLATE inactive; negative | Test System: AMES SALMONELLA TYPHIMURIUM, Strain/Indicator: TA1535, Metabolic Activation: NONE, Method: PREINCUBATION inactive; negative | Test System: AMES SALMONELLA TYPHIMURIUM, Strain/Indicator: TA1535, Metabolic Activation: NONE, Method: STANDARD PLATE inactive; negative | Test System: AMES SALMONELLA TYPHIMURIUM, Strain/Indicator: TA1535, Metabolic Activation: RAT LIVER S-9, PHENOBARBITAL AND BETA-NAPHTHOFLAVONE, Method: PREINCUBATION inactive; negative | Test System: AMES SALMONELLA TYPHIMURIUM, Strain/Indicator: TA1535, Metabolic Activation: RAT, LIVER, S-9, AROCLOR 1254, Method: STANDARD PLATE inactive; negative
